Data from PMC9295122, “Sialic Acid Derivatives Inhibit SiaT Transporters and Delay Bacterial Growth” (ACS Chemical Biology, 2022).
Like-named read-outs stand apart in the source and are kept apart here.

Tests used:
PmSiaT = molecular target: T1, PmSiaT (Proteus mirabilis, UniProt B4EZY7); experiment: nanoDSF thermal shift assay, PmSiaT; assay type: binding; conditions: for Average 1 / Average 2 / Average 3 / Replicate 1 / Replicate 2 / Replicate 3: PmSiaT Tm; for Average 1: average of experiment 1; for Average 2: average of experiment 2; for Average 3: average of experiment 3; for Replicate 1: experiment 1, second capillary; for Replicate 2: experiment 2, second capillary; for Replicate 3: experiment 3, second capillary; for Tm 1: experiment 1, first capillary; for Tm2: experiment 2, first capillary; for Tm 3: experiment 3, first capillary; for ΔTm at 1250 µM: read-out: ΔTm average overall
T1 construct: made in house
T1 sequence (B4EZY7 1-496): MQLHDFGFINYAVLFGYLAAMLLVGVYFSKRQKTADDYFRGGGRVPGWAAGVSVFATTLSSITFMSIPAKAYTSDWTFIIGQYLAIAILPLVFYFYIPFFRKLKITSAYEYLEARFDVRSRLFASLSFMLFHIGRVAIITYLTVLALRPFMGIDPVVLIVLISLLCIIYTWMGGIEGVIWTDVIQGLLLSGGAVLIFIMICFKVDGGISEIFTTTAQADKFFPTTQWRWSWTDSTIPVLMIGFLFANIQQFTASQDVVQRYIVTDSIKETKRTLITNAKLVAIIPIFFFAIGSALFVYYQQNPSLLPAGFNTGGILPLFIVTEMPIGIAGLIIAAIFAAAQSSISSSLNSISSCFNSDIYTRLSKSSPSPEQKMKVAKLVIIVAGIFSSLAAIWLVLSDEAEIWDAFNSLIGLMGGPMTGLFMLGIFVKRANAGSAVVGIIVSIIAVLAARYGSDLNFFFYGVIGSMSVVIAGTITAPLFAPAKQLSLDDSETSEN
Protocol: (§1) Nano-differential scanning fluorimetry (nanoDSF) is a high-throughput method that relies on the thermal stabilization of the folded protein state by a bound ligand.[33]
(§2) The melting points of protein–inhibitor complexes were measured on a Prometheus NT.48 instrument from NanoTemper Technologies. Solutions containing the protein at 2 μM in phosphate buffered saline with 0.0174% (w/v) dodecylmaltoside (DDM) and the ligand at 1.25 mM were loaded onto standard capillaries by NanoTemper. The temperature was increased from 25 to 95 °C at a ramp rate of 1 °C/min. The fluorescence was recorded at 330 and 350 nm and as a ratio of the two wavelengths.
(§3) The intensity ratio and its first derivative were calculated using manufacturer’s software (PR.ThermControl, version 2.1.2).
(§4) The melting temperatures have been measured in 3 separate experiments. In each experiment, two capillaries were included per compound, having therefore 2 technical replicates per experiment. In the table all data is presented. Tm1 and Replicate 1 represent the two replicates of the first experiment. Average 1 is the average between Tm 1 and Replicate 1. ΔTm 1 is the thermal shift when compared to the Tm of Neu5Ac. This is calculated from Average 1. The ΔTm presented in the article are the ΔTm average overall, which represent the overall average of the averages from the three experiments. The standard deviation (SD) is calculated from the […]

SaSiaT = SaSiaT (Staphylococcus aureus, UniProt A0A0H2XJ46); experiment: nanoDSF thermal shift assay, SaSiaT; assay type: binding; conditions: for Average 1 / Average 2 / Average 3 / Replicate 1 / Replicate 2 / Replicate 3: SaSiaT Tm; for Average 1: average of experiment 1; for Average 2: average of experiment 2; for Average 3: average of experiment 3; for Replicate 1: experiment 1, second capillary; for Replicate 1 / Replicate 2 / Replicate 3 / Tm 1 / Tm2 / Tm 3 / Overall average (Tm): 1.25 mM; for Replicate 2: experiment 2, second capillary; for Replicate 3: experiment 3, second capillary; for Tm 1: experiment 1, first capillary; for Tm2: experiment 2, first capillary; for Tm 3: experiment 3, first capillary; for Overall average (Tm): three experiments
Protocol: as §1, §2, §3, §4

[1] = PmSiaT, three experiments, 1.25 mM
[2] = PmSiaT, experiment 1, vs Neu5Ac, read-out: ΔTm 1
[3] = PmSiaT, experiment 2, vs Neu5Ac, read-out: ΔTm 2
[4] = PmSiaT, experiment 3, vs Neu5Ac, read-out: ΔTm 3
[5] = PmSiaT, three experiments, vs Neu5Ac, 1.25 mM

Chain of SaSiaT (A0A0H2XJ46 entry or part of it): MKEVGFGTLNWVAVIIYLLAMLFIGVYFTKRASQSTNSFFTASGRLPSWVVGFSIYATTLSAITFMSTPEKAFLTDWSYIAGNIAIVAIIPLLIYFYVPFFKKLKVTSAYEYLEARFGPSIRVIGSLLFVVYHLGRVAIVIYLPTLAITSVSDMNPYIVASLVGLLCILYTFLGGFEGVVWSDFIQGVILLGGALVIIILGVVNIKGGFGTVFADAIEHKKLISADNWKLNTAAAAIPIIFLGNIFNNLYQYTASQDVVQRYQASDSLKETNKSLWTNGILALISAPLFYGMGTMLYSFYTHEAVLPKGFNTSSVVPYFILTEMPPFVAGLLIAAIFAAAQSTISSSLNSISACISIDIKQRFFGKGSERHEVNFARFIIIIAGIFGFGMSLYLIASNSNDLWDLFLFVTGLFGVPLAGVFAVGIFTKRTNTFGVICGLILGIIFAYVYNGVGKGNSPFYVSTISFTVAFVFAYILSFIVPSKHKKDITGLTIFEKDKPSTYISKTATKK

Row | Compound | Average 1 (PmSiaT) | Average 2 (PmSiaT) | Average 3 (PmSiaT) | Replicate 1 (PmSiaT; 1.25 mM) | Replicate 2 (PmSiaT; 1.25 mM) | Replicate 3 (PmSiaT; 1.25 mM) | Tm 1 (PmSiaT; PmSiaT, 1.25 mM) | Tm2 (PmSiaT; PmSiaT, 1.25 mM) | Tm 3 (PmSiaT; PmSiaT, 1.25 mM) | Tm average overall (PmSiaT; [1]) | Average 1 (SaSiaT) | Average 2 (SaSiaT) | Average 3 (SaSiaT) | Replicate 1 (SaSiaT) | Replicate 2 (SaSiaT) | Replicate 3 (SaSiaT) | Tm 1 (SaSiaT; SaSiaT) | Tm2 (SaSiaT; SaSiaT) | Tm 3 (SaSiaT; SaSiaT) | Overall average (Tm) (SaSiaT; SaSiaT) | further results
1 | CC(=O)NC1C(O)CC(O)(C(=O)O)OC1C(O)C(C)O (stereo not drawn) [Compound 8f] | 46.0 °C | 45.9 °C | 45.9 °C | 46.0 °C | 45.9 °C | 45.9 °C | 46.0 °C | 45.8 °C | 45.9 °C | 45.9 °C | 43.1 °C | 43.0 °C | 42.9 °C | 42.9 °C | 43.1 °C | 43.0 °C | 43.2 °C | 43.0 °C | 42.8 °C | 43.0 °C | binding / thermal stabilization in words (PmSiaT; PmSiaT, nanoDSF screen): complete loss of affinity; binding / thermal stabilization in words (SaSiaT; SaSiaT, nanoDSF screen): complete loss of affinity
2 | O=C(CF)NC1C(O)CC(O)(C(=O)O)OC1C(O)C(O)CO (stereo not drawn) [Compound 6f] | 47.4 °C | 47.6 °C | 47.4 °C | 47.4 °C | 47.6 °C | 47.3 °C | 47.4 °C | 47.7 °C | 47.4 °C | 47.5 °C | 52.0 °C | 51.2 °C | 51.9 °C | 52.0 °C | 51.2 °C | 51.8 °C | 52.0 °C | 51.2 °C | 52.1 °C | 51.7 °C | ΔTm at 1250 µM (PmSiaT): -1.7 °C
3 | CC(C)(C)C(=O)NC1C(O)CC(O)(C(=O)O)OC1C(O)C(O)CO (stereo not drawn) [Compound 6c] | – | 46.7 °C | 46.7 °C | 46.3 °C | 46.7 °C | 46.6 °C | 46.6 °C | 46.7 °C | 46.7 °C | 46.6 °C | 43.5 °C | 44.2 °C | 43.8 °C | 43.4 °C | 44.1 °C | 43.6 °C | 43.6 °C | 44.2 °C | 43.9 °C | 43.8 °C | ΔTm (PmSiaT; [2]): -2.5 °C; ΔTm (PmSiaT; [3]): -2.5 °C; ΔTm (PmSiaT; [4]): -2.6 °C; ΔTm at 1250 µM (PmSiaT; [5]): -2.5 °C
4 | CCSCC(O)C(O)C1OC(O)(C(=O)O)CC(O)C1NC(C)=O (stereo not drawn) [Compound 8b] | 45.9 °C | 45.9 °C | 46.1 °C | 45.9 °C | 46.0 °C | 46.1 °C | 45.8 °C | 45.9 °C | 46.2 °C | 46.0 °C | 49.9 °C | 48.6 °C | 49.8 °C | 49.9 °C | 48.7 °C | 49.6 °C | 49.9 °C | 48.5 °C | 50.0 °C | 49.4 °C | ΔTm (PmSiaT; [2]): -3.1 °C; ΔTm (PmSiaT; [3]): -3.3 °C; ΔTm (PmSiaT; [4]): -3.2 °C; ΔTm at 1250 µM (PmSiaT; [5]): -3.2 °C
5 | CSCC(O)C(O)C1OC(O)(C(=O)O)CC(O)C1NC(C)=O (stereo not drawn) [Compound 8a] | 45.9 °C | 46.2 °C | 46.1 °C | 45.8 °C | 46.0 °C | 46.0 °C | 46.1 °C | 46.3 °C | 46.2 °C | 46.1 °C | 51.0 °C | 49.2 °C | 50.8 °C | 50.9 °C | 49.2 °C | 50.4 °C | 51.0 °C | 49.3 °C | 51.3 °C | 50.3 °C | ΔTm (PmSiaT; [2]): -3.1 °C; ΔTm (PmSiaT; [3]): -3 °C; ΔTm (PmSiaT; [4]): -3.2 °C; ΔTm at 1250 µM (PmSiaT; [5]): -3.1 °C
